Reference: patent US6939882B1 (priority 1999, dated 2005)

Legend:
Pyricularia oryzae = assay type: in vivo; settings: concentration of 500 ppm (w/v) or less, spray or stem base drench
Plasmopara viticola = settings: in vivo; also: key: 1 is little or no control; 2 is moderate control; 3 is good to total control
Leptosphaeria nodorum = settings: in vivo; also: key: 1 is little or no control; 2 is moderate control; 3 is good to total control
Phytophthora infestans = assay type: in vivo; settings: concentration of 500 ppm (w/v) or less, spray or stem base drench

| SMILES | score of disease control (degree of infection visually estimated) (Pyricularia oryzae) | score of disease control (degree of infection visually estimated) (Plasmopara viticola) | other results |
| --- | --- | --- | --- |
| N#CC(=NOc1ncc(C(F)(F)F)cc1Cl)c1c(Cl)cccc1Cl (single isomer, unassigned) [Compound 937] | 2 | – | – |
| N#CC(=NOc1ncc(C(F)(F)F)cc1Cl)c1c(Cl)cccc1Cl (single isomer, unassigned) [Compound 938] | 2 | – | – |
| CCOC(=O)C(c1ncc(C(F)(F)F)cc1Cl)N(Cc1ccccc1Cl)C(C)=O (stereo not drawn) [Compound 7] | 2 | 2 | – |
| CCOC(=O)C(c1ncc(C(F)(F)F)cc1Cl)N(Cc1ccccc1Cl)C(=O)C(=O)OC (stereo not drawn) [Compound 9] | 2 | 2 | – |
| CCOC(=O)C(c1ncc(C(F)(F)F)cc1Cl)N(Cc1ccc2c(c1)OCO2)C(=O)C(=O)OC (stereo not drawn) [Compound 12] | – | 2 | – |
| CC(NCc1ncc(C(F)(F)F)cc1Cl)c1ccccc1Cl (stereo not drawn) [Compound 17] | 2 | – | – |
| CC(NCc1ncc(C(F)(F)F)cc1Cl)c1ccc(F)c(F)c1 (stereo not drawn) [Compound 23, N-{[3-Chloro-5-(trifluoromethyl)-2-pyridyl]methyl}-N-[1-(3,4-difluorophenyl)-ethyl]amine] | – | – | score of disease control (degree of infection visually estimated) (Leptosphaeria nodorum): 2 |
| COc1ccc(OC)c(CNCc2ncc(C(F)(F)F)cc2Cl)c1 [Compound 49] | – | – | score of disease control (degree of infection visually estimated) (Phytophthora infestans): 2 |
| O=[N+]([O-])c1ccc(CNCc2ncc(C(F)(F)F)cc2Cl)cc1 [Compound 51] | – | – | score of disease control (degree of infection visually estimated) (Leptosphaeria nodorum): 2 |
| O=C(NNc1ncc(C(F)(F)F)cc1Cl)c1c(Cl)cccc1Cl [Compound 102] | – | 2 | score of disease control (degree of infection visually estimated) (Phytophthora infestans): 2 |
| CN(NC(=O)c1c(Cl)cccc1Cl)c1ncc(C(F)(F)F)cc1Cl [Compound 109] | – | 2 | – |
| O=C(NNc1ncc(C(F)(F)F)cc1Cl)c1c(F)cccc1Cl [Compound 126] | 2 | 2 | score of disease control (degree of infection visually estimated) (Leptosphaeria nodorum): 2; score of disease control (degree of infection visually estimated) (Phytophthora infestans): 2 |
| CC(NC(=O)c1ncc(C(F)(F)F)cc1Cl)c1c(F)cccc1F (stereo not drawn) [Compound 202] | – | – | score of disease control (degree of infection visually estimated) (Phytophthora infestans): 2 |
| CC(NC(=O)c1ncc(C(F)(F)F)cc1Cl)c1ccc(Cl)cc1 (stereo not drawn) [Compound 207] | – | – | score of disease control (degree of infection visually estimated) (Leptosphaeria nodorum): 2 |
| CC(NC(=O)c1ncc(C(F)(F)F)cc1Cl)c1ccc(Br)cc1 (stereo not drawn) [Compound 208] | – | – | score of disease control (degree of infection visually estimated) (Leptosphaeria nodorum): 2 |
| Cc1ccc(CNC(=O)c2ncc(C(F)(F)F)cc2Cl)cc1 [Compound 215] | – | 2 | score of disease control (degree of infection visually estimated) (Phytophthora infestans): 2 |
| O=C(C=Cc1ncc(C(F)(F)F)cc1Cl)c1ccccc1[N+](=O)[O-] [Compound 601, 3-[3-Chloro-5-(trifluoromethyl)-2-pyridyl]-1-(2-nitrophenyl)-2-propen-1-one] | – | 2 | score of disease control (degree of infection visually estimated) (Phytophthora infestans): 2 |
| CC(=NOc1ncc(C(F)(F)F)cc1Cl)c1ccccc1Cl [Compound 901] | 2 | 2 | – |
| FC(F)(F)c1cnc(ON=Cc2ccncc2)c(Cl)c1 [Compound 902] | – | – | score of disease control (degree of infection visually estimated) (Phytophthora infestans): 2 |
| CC(=NOc1ncc(C(F)(F)F)cc1Cl)c1cccn1C [Compound 906] | 2 | – | score of disease control (degree of infection visually estimated) (Leptosphaeria nodorum): 2 |
| CC(=NOc1ncc(C(F)(F)F)cc1Cl)c1ccccc1C [Compound 907] | 2 | 2 | – |

| SMILES | score of disease control (degree of infection visually estimated) (Pyricularia oryzae) | score of disease control (degree of infection visually estimated) (Plasmopara viticola) | other results |
| --- | --- | --- | --- |
| CC(C)(C)C(=NOc1ncc(C(F)(F)F)cc1Cl)c1ccccn1 [Compound 912] | – | – | score of disease control (degree of infection visually estimated) (Phytophthora infestans): 2 |
| CC(=NOc1ncc(C(F)(F)F)cc1Cl)c1cccs1 [Compound 913] | 2 | – | – |
| COc1ccc(C=NOc2ncc(C(F)(F)F)cc2Cl)cc1 [Compound 914] | – | 2 | – |
| CC(=NOc1ncc(C(F)(F)F)cc1Cl)c1ccc(C)cc1C [Compound 915] | – | 2 | – |
| COc1ccccc1C=NOc1ncc(C(F)(F)F)cc1Cl [Compound 921] | – | 2 | – |
| CCC(=NOc1ncc(C(F)(F)F)cc1Cl)c1ccccc1 [Compound 922] | 2 | – | – |
| O=[N+]([O-])c1cccc(C=NOc2ncc(C(F)(F)F)cc2Cl)c1 [Compound 923] | 2 | – | score of disease control (degree of infection visually estimated) (Leptosphaeria nodorum): 2 |
| N#CC(=NOc1ncc(C(F)(F)F)cc1Cl)c1ccccc1 [Compound 926] | – | – | score of disease control (degree of infection visually estimated) (Leptosphaeria nodorum): 2 |
| CC(=NOc1ncc(C(F)(F)F)cc1Cl)c1ccccc1 [Compound 927] | – | – | score of disease control (degree of infection visually estimated) (Phytophthora infestans): 2 |
| FC(F)(F)c1cnc(ON=Cc2ccccc2Cl)c(Cl)c1 [Compound 929] | – | – | score of disease control (degree of infection visually estimated) (Leptosphaeria nodorum): 2 |
| FC(F)(F)c1cnc(ON=Cc2cccc3ccccc23)c(Cl)c1 [Compound 933] | – | – | score of disease control (degree of infection visually estimated) (Leptosphaeria nodorum): 2 |
| N#CC(=NOc1ncc(C(F)(F)F)cc1Cl)c1ccccc1C#N [Compound 939] | 2 | – | – |
| CCC(=NOc1ncc(C(F)(F)F)cc1Cl)c1ccc(Cl)cc1Cl [Compound 953] | – | – | score of disease control (degree of infection visually estimated) (Phytophthora infestans): 2 |
| FC(F)(F)c1cnc(ON=C(c2ccc(Cl)cc2)c2ccc(Cl)cc2)c(Cl)c1 [Compound 958] | – | 2 | – |
| Cc1cnc(C(=O)NOc2ncc(C(F)(F)F)cc2Cl)cn1 [Compound 1001] | 2 | 2 | – |
| Cc1nc(C)c(C(=O)NOc2ncc(C(F)(F)F)cc2Cl)s1 [Compound 1007] | – | – | score of disease control (degree of infection visually estimated) (Leptosphaeria nodorum): 2 |
| O=C(NOc1ncc(C(F)(F)F)cc1Cl)c1ccccc1Cl [Compound 1013] | – | 2 | – |
| CC1CCc2ccccc2C1=NOc1ncc(C(F)(F)F)cc1Cl (stereo not drawn) [Compound 1101, 2-Methyl-1,2,3,4-tetrahydro-1-naphthalenone O-1-[3-chloror-5-(trifluoromethyl)-2-pyridyl]oxime] | – | – | score of disease control (degree of infection visually estimated) (Phytophthora infestans): 2 |
| COc1ccc2c(c1)C(=NOc1ncc(C(F)(F)F)cc1Cl)CCC2 [Compound 1102] | – | – | score of disease control (degree of infection visually estimated) (Phytophthora infestans): 2 |
| CN1C(=O)C(=NOc2ncc(C(F)(F)F)cc2Cl)c2ccccc21 [Compound 1109] | – | – | score of disease control (degree of infection visually estimated) (Leptosphaeria nodorum): 2 |
